Results as given in patent US20250195521A1 (Revolution Medicines, Inc., priority 2020, published 2025).
Like-named read-outs stand apart in the source and are kept apart here.

Tests used:
[1] = 18-membered ring
[2] = target: K-Ras G12C(GMP-PNP) binding to BRAF RBD (Homo sapiens (Human), UniProt P01116+P62937, G12C); assay: Disruption of BRAF RBD interaction with K-Ras (FRET / MOA assay), K-Ras G12C; assay type: biochemical; settings: read-out: KRAS G12C FRET IC50
Summary of the method: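 TR-FRET readout: after 3 h compound incubation at 25 °C, anti-His Eu and anti-GST allophycocyanin (10 and 50 nM final) added for a further 1.5 h. Dilution series was 10-point, 3-fold, top 30 μM final. Ras–cyclophilin A ternary complex formation blocks the BRAF RBD interaction; IC50 derived from reduced FRET ratio relative to DMSO.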

[3] = target: KRAS G13D binding to BRAF RBD (Homo sapiens (Human), UniProt P01116+P62937, G13D); assay: Ras-Raf disruption/FRET/MOA assay, KRAS G13D; assay type: biochemical
Source text: (§1) Note—The following protocol describes a procedure for monitoring disruption of K-Ras G12C(GMP-PNP) binding to BRAF^RBD by a compound of the invention. This protocol may also be executed substituting other Ras proteins or nucleotides.
(§2) The purpose of this biochemical assay was to measure the ability of test compounds to facilitate ternary complex formation between a nucleotide-loaded K-Ras isoform and Cyclophilin A; the resulting ternary complex disrupts binding to a BRAF^RBD construct, inhibiting K-Ras signaling through a RAF effector. Data is reported as IC50 values.
(§3) Compound was present in plate wells as a 10-point 3-fold dilution series starting at a final concentration of 30 μM. After incubation at 25° C. for 3 hours, a mixture of Anti-His Eu—W1024 and anti-GST allophycocyanin was then added to assay sample wells at final concentrations of 10 nM and 50 nM, respectively, and the reaction incubated for an additional 1.5 hours. […] Compounds that facilitate disruption of a K-Ras: RAF complex were identified as those eliciting a decrease in the TR-FRET ratio relative to DMSO control wells.

[4] = target: NRAS G12C binding to BRAF RBD (Homo sapiens (Human), UniProt P01111+P62937, G12C); assay: Ras-Raf disruption/FRET/MOA assay, NRAS G12C; assay type: biochemical
Source text: as §1, §2, §3

NCI-H358 (K-Ras G12C) = assay: CellTiter-Glo cell viability assay, NCI-H358; assay type: cell-based, human; settings: Homo sapiens, NCI-H358, 120 h, 5-day treatment; read-out: H358 Cell Viability assay data (K-Ras G12C, IC50)
Summary of the method: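 Cells seeded, compound added directly to plates; day 5: plates to RT ~30 min, CellTiter-Glo luminescence; (sample/avg DMSO)*100; 4-parameter fit.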

[5] = system: Capan-1 cells (K-Ras G12V); assay: CellTiter-Glo cell viability, Capan-1; assay type: cell-based, human; settings: Homo sapiens, CAPAN-1, 120 h, K-Ras G12V, 5-day treatment; read-out: Capan-1 Cell Viability IC50
Summary of the method: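 Cells seeded, compound dispensed straight into wells, 5-day exposure. Plates brought to room temperature ~30 min, CellTiter-Glo luminescence measured. Normalized to DMSO (%), 4-parameter logistic fit.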

[6] = target: KRAS G12S binding to BRAF RBD (Homo sapiens (Human), UniProt P01116+P62937, G12S); assay: Ras-Raf disruption/FRET/MOA assay, KRAS G12S; assay type: biochemical
Source text: as §1, §2, §3

[7] = target: KRAS WT binding to BRAF RBD (Homo sapiens (Human), UniProt P01116+P62937); assay: Ras-Raf disruption/FRET/MOA assay, KRAS WT; assay type: biochemical
Source text: Disruption of B-Raf Ras-binding Domain (BRAF^RBD) Interaction with K-Ras by Compounds of the Invention (also called a FRET assay or an MOA assay)
as §1, §2
as §3, with “In assay buffer containing 25 mM HEPES pH 7.3, 0.002% Tween20, 0.1% BSA, 100 mM NaCl and 5 mM MgCl2, tagless Cyclophilin A, His6-K-Ras-GMPPNP, and GST-BRAF^RBD were combined in a 384-well assay plate at final concentrations of 25 μM, 12.5 nM and 50 nM, respectively. Compound was” for “Compound was”

[8] = system: K-Ras G12C (NCI-H358 cells); assay: Potency assay: pERK in NCI-H358 cells; assay type: cell-based, human; settings: Homo sapiens; NCI-H358 cells, 4 hours; read-out: pERK EC50 (H358 KRAS G12C)
Summary of the method: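 Cells plated the day before were exposed for 4 h at 37° C, 5% CO2 to a 10-point, 3-fold DMSO dilution series (10 mM top stock), in duplicate. Phospho-ERK was read by AlphaLISA SureFire Ultra or by In-Cell Western with DRAQ5 DNA stain, and IC50 came from a 4-parameter sigmoidal fit.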

KRAS WT binding to BRAF RBD, sequence (P01116 other isoform, or with tags, fused parts or gaps): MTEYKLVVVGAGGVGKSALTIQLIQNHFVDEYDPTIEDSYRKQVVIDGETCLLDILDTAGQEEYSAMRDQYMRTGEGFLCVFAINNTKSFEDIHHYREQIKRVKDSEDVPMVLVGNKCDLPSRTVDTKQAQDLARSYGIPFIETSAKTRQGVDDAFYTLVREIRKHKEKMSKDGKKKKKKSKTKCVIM
KRAS WT binding to BRAF RBD, sequence (P62937 whole entry, the tested form may be a part): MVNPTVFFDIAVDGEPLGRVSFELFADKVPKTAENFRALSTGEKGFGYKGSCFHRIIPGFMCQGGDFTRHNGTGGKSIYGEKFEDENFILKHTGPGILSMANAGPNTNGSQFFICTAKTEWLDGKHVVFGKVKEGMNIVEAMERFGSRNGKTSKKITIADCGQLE
KRAS G12S binding to BRAF RBD, sequence (P01116 other isoform, or with tags, fused parts or gaps G12S): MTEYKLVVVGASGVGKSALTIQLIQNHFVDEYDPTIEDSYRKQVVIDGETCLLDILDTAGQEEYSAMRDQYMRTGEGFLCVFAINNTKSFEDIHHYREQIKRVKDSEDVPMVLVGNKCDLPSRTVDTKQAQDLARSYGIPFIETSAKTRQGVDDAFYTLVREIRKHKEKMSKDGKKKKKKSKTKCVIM
KRAS G12S binding to BRAF RBD, sequence (P62937 whole entry): as the sequence (P62937 whole entry, the tested form may be a part) above
K-Ras G12C(GMP-PNP) binding to BRAF RBD, sequence (P01116 other isoform, or with tags, fused parts or gaps G12C): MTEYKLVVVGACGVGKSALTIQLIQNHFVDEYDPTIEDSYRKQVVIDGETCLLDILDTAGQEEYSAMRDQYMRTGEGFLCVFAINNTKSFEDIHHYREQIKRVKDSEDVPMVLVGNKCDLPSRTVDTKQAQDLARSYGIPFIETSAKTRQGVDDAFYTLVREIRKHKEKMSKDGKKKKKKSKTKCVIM
K-Ras G12C(GMP-PNP) binding to BRAF RBD, sequence (P62937 whole entry): as the sequence (P62937 whole entry, the tested form may be a part) above
KRAS G13D binding to BRAF RBD, sequence (P01116 other isoform, or with tags, fused parts or gaps G13D): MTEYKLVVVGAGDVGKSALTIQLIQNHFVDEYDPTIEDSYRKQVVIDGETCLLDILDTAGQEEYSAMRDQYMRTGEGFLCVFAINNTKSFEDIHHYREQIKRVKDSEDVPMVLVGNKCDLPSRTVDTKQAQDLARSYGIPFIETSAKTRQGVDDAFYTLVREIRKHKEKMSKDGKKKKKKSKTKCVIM
KRAS G13D binding to BRAF RBD, sequence (P62937 whole entry): as the sequence (P62937 whole entry, the tested form may be a part) above
NRAS G12C binding to BRAF RBD, sequence (P01111 whole entry G12C): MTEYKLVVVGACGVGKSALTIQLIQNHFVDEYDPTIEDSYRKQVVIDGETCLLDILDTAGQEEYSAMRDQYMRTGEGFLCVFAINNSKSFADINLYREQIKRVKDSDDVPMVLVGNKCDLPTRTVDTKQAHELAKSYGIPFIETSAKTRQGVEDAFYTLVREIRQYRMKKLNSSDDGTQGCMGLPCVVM
NRAS G12C binding to BRAF RBD, sequence (P62937 whole entry): as the sequence (P62937 whole entry, the tested form may be a part) above

Compound | IC50 [2] | IC50 [3] | IC50 [4] | IC50 (NCI-H358 (K-Ras G12C)) | also measured
CCn1c(-c2cccnc2[C@H](C)OC)c2c3cc(ccc31)-c1csc(n1)C[C@H](NC(=O)OC(C)(C)C)C(=O)N1CCC[C@H](N1)C(=O)OCC(C)(C)C2 |  |  |  |  | ring closure, isolated yield ([1]; from CCn1c(-c2cccnc2[C@H](C)OC)c(CC(C)(C)CO)c2cc(-c3csc(C[C@H](NC(=O)OC(C)(C)C)C(=O)N4CCC[C@@H](C(=O)O)N4)n3)ccc21, ester bond, EDCI/HOBt/DIEA, DCM, 12.65 mM, 16.0 h): 81.1%
CCn1c(-c2cccnc2[C@H](C)OC)c2c3cc(ccc31)-c1csc(n1)C[C@H](NC(=O)OC(C)(C)C)C(=O)N1CC[C@H](C)[C@H](N1)C(=O)OCC(C)(C)C2 |  |  |  |  | ring closure, isolated yield ([1]; from CCn1c(-c2cccnc2[C@H](C)OC)c(CC(C)(C)COC(=O)[C@H]2NN(C(=O)[C@H](Cc3nc(Br)cs3)NC(=O)OC(C)(C)C)CC[C@@H]2C)c2cc(B3OC(C)(C)C(C)(C)O3)ccc21, cc_pd bond, Pd(DtBPF)Cl2/K3PO4, dioxane/H2O 5:1, 17.5 mM, 60.0 °C, 1.0 h): 44.7%
CCn1c(-c2cccnc2[C@H](C)OC)c2c3cc(ccc31)N1CCC[C@@H](C[C@H](NC(=O)OCc3ccccc3)C(=O)N3CCC[C@H](N3)C(=O)OCC(C)(C)C2)C1 |  |  |  |  | ring closure, isolated yield ([1]; from CCn1c(-c2cccnc2[C@H](C)OC)c(CC(C)(C)CO)c2cc(N3CCC[C@@H](C[C@H](NC(=O)OCc4ccccc4)C(=O)N4CCC[C@@H](C(=O)O)N4)C3)ccc21, ester bond, EDCI/HOBt/DIEA, DCM, 36.7 mM, 25.0 °C, 6.0 h): 36%
C=CC(=O)N1CC[C@H](C(=O)N(C)[C@H](C(=O)N[C@H]2Cc3cccc(c3)-c3ccc4c(c3)c(c(-c3cccnc3[C@H](C)OC)n4CC)CC(C)(C)COC(=O)[C@@H]3CCCN(N3)C2=O)C(C)C)C1 [Compound A114] | > 10 µM | > 10 µM | > 10 µM |  | 
C=CC(=O)N1CC[C@H](C(=O)N(C)[C@H](C(=O)N[C@H]2Cc3cc(O)cc(c3)-c3ccc4c(c3)c(c(-c3cccnc3COC)n4CC)CC(C)(C)COC(=O)[C@@H]3CCCN(N3)C2=O)C(C)C)C1 [Compound A137] |  | > 10 µM | 0.1 to 1 µM | > 10 µM | 
CC#CC(=O)N1CC[C@H](C(=O)N(C)[C@H](C(=O)N[C@H]2Cc3cc(O)cc(c3)-c3ccc4c(c3)c(c(-c3cncnc3)n4CC)CC(C)(C)COC(=O)[C@@H]3CCCN(N3)C2=O)C(C)C)C1 [Compound A169] | 0.1 to 1 µM | > 10 µM | 0.1 to 1 µM | 0.1 to 1 µM | 
CCn1c(-c2cnccc2COC)c2c3cc(ccc31)-c1cc(O)cc(c1)C[C@H](NC(=O)[C@H](C(C)C)N(C)C(=O)O[C@H]1CCOC1)C(=O)N1CCC[C@H](N1)C(=O)OCC(C)(C)C2 [Compound A260] | 0.01 to 0.1 µM |  |  | < 0.01 µM | IC50 [5]: 1 to 10 µM; IC50 [6]: 0.01 to 0.1 µM; IC50 [7]: 0.01 to 0.1 µM
C/C=C/S(=O)(=O)N1CC[C@H](C(=O)N(C)[C@H](C(=O)N[C@H]2Cc3cc(O)cc(c3)-c3ccc4c(c3)c(c(-c3ccncc3[C@H](C)OC)n4CC)CC(C)(C)COC(=O)[C@@H]3CCCN(N3)C2=O)C(C)C)C1 [Compound A280] | 0.01 to 0.1 µM | 0.1 to 1 µM | 0.1 to 1 µM | 0.01 to 0.1 µM | EC50 [8]: < 5 µM; IC50 [7]: 0.01 to 0.1 µM
C=CC(=O)N1CC[C@H](C(=O)N(C)[C@H](C(=O)NC2C[C@@H]3CN(CCO3)c3ccc4c(c3)c(c(-c3cccnc3COC)n4CC)CC(C)(C)COC(=O)[C@@H]3CCCN(N3)C2=O)C(C)C)C1 (some centres unmarked) [Compound A318] | > 10 µM | > 10 µM | > 10 µM | > 10 µM | 
CCn1c(-c2cccnc2[C@H](C)OC)c2c3cc(ccc31)-c1csc(n1)C[C@H](NC(=O)[C@H](C(C)C)N(C)C(=O)N1CC(C#N)C1)C(=O)N1CCC[C@H](N1)C(=O)OCC(C)(C)C2 [Compound A382] |  |  |  | < 0.01 µM | IC50 [6]: 0.01 to 0.1 µM; IC50 [7]: 0.01 to 0.1 µM
C=CC(=O)N1CC[C@H](C(=O)N(C)[C@H](C(=O)N[C@H]2Cc3csc(n3)-c3ccc4c(c3)c(c(-c3cc(N5CCN(C)CC5)cnc3[C@H](C)OC)n4CC(C)(F)F)CC(C)(C)COC(=O)[C@@H]3CCCN(N3)C2=O)C(C)C)C1 [Compound A410] | 0.01 to 0.1 µM | 0.1 to 1 µM | 0.01 to 0.1 µM | < 0.01 µM | EC50 [8]: < 5 µM
CCn1c(-c2cccnc2[C@H](C)OC)c2c3cc(ccc31)-c1cc(C(F)F)cc(n1)C[C@H](NC(=O)[C@H](C1CCCC1)N(C)C(=O)[C@H]1CCN(C(=O)C#CC(C)(C)N3CCC3)C1)C(=O)N1CCC[C@H](N1)C(=O)OCC(C)(C)C2 [Compound A456] | 0.01 to 0.1 µM | 1 to 10 µM | 0.01 to 0.1 µM | < 0.01 µM | 
CC#CC(=O)N1CC[C@]2(CCC([C@H](C(=O)N[C@H]3Cc4nc(cs4)-c4ccc5c(c4)c(c(-c4cccnc4[C@H](C)OC)n5CC)CC(C)(C)COC(=O)[C@@H]4CCCN(N4)C3=O)C(C)C)C2=O)C1 (some centres unmarked) [Compound A511] | 0.1 to 1 µM | 1 to 10 µM | 0.1 to 1 µM | < 0.01 µM | 
CCn1c(-c2cccnc2[C@H](C)OC)c2c3cc(ccc31)-c1cccc(c1)C[C@H](NC(=O)[C@H](C(C)C)N(C)C(=O)[C@H]1CCN(C(=O)C#C[C@@H]3CC(F)(F)CN3C)C1)C(=O)N1CCC[C@H](N1)C(=O)OCC(C)(C)C2 [Compound A526] | 0.01 to 0.1 µM | > 10 µM | 0.01 to 0.1 µM | < 0.01 µM | 
CCn1c(-c2cc(C3CCN(C)CC3)cnc2[C@H](C)OC)c2c3cc(ccc31)-c1cc(O)cc(c1)C[C@H](NC(=O)[C@H](C(C)C)N(C)C(=O)[C@@H]1OCC[C@@H]1c1ccccc1)C(=O)N1CCC[C@H](N1)C(=O)OCC(C)(C)C2 [Compound A577] |  |  |  | < 0.01 µM | EC50 [8]: < 5 µM; IC50 [6]: 0.01 to 0.1 µM
CCn1c(-c2cc(N3CCN(C)CC3)cnc2[C@H](C)OC)c2c3cc(ccc31)-c1cc(O)cc(c1)C[C@H](NC(=O)[C@H](C(C)C)N(C)C(=O)[C@@H]1OCC[C@@H]1c1ccccc1)C(=O)N1CCC[C@H](N1)C(=O)OCC(C)(C)C2 [Compound A594] | 0.01 to 0.1 µM |  |  | < 0.01 µM | EC50 [8]: < 5 µM; IC50 [7]: 0.01 to 0.1 µM
(2S,6S)—N-((6^3S,3S,4S,Z)-3-(2-(dimethylamino) ethoxy)-1^1-ethyl-1^2-(2-((S)-1-methoxyethyl) pyridin-3-yl)-10, 10-dimethyl-5,7-dioxo-6^1,6^2,6^3,6^4,6^5,6^6-hexahydro-1^1H-8-oxa-2 (4,2)-thiazola-1 (5,3)-indola-6 (1,3)-pyridazinacycloundecaphane-4-yl)-2,4,6-trimethylpiperazine-1-carboxamide |  |  |  |  | ring closure, isolated yield ([1]; cc_pd bond, Pd(dtbpf)Cl2/K3PO4, toluene/1,4-dioxane/H2O 3:1:1, 57.0 mM, 60.0 °C): 50%
